Measurements reported in PMC8227659, “The Metarhizium anisopliae Toxin, Destruxin A, Interacts with the SEC23A and TEME214 Proteins of Bombyx mori” (Journal of Fungi, 2021).
Where a SMILES comes first, the peptide text is derived from it. [ ]: non-standard residue; d: D form. dLac(3-vinyl) = C=CC[C@@H](O)C(=O)O; NMeV = CN[C@H](C(=O)O)C(C)C; NMeA = CN[C@@H](C)C(=O)O; βAla = NCCC(=O)O

Biological target: T1, BmTMEM214 (BmTEME214) (Bombyx mori, UniProt A0A8R1WLS5)
T1 construct: immobilised on biosensor
T1 sequence (A0A8R1WLS5 1-663): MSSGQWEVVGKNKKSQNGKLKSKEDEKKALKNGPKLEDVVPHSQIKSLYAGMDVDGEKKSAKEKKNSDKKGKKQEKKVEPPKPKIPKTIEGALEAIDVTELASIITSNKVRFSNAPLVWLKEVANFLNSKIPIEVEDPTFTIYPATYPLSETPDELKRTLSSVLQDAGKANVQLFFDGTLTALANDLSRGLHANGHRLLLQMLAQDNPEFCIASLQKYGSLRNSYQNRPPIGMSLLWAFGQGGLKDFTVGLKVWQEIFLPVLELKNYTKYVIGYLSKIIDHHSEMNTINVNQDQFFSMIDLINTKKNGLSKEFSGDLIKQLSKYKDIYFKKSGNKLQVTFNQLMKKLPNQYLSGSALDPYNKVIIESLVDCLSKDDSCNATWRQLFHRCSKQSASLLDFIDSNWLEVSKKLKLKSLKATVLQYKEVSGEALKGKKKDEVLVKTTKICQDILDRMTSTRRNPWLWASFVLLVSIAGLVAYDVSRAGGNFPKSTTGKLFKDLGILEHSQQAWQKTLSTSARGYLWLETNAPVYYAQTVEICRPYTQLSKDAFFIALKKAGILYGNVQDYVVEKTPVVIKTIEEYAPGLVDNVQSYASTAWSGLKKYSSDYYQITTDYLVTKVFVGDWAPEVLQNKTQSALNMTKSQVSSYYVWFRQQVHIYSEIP
Experiment: bio-layer interferometry, immobilised protein
Type: binding
Excerpt: bio-layer interferometry, immobilised protein on BmTMEM214 (BmTEME214)

Structure (SMILES): C=CC[C@H]1OC(=O)CCNC(=O)[C@H](C)N(C)C(=O)[C@H](C(C)C)N(C)C(=O)[C@H]([C@@H](C)CC)NC(=O)[C@@H]2CCCN2C1=O [DA, Destruxin A] (cyclo(I[NMeV][NMeA][βAla][dLac(3-vinyl)]P))
- Kd: 286 nM
